# Experimental data as given in US11117947B2, “Double-acylated GLP-1 derivatives” (Novo Nordisk A/S, priority 2011, dated 2021).
# Like-named read-outs stand apart in the source and are kept apart here. Numbered stars: 1 amine (or outer) side, 2 acyl side, 3 side chain; on linkers, the order of the positions; unused ones are H or OH. Side chains are listed from the residue outwards. Peptide text beside a SMILES is read from it. * marks the point of attachment. Decanoyl(10-(4-HOOC-PhO)) = O=C(O)c1ccc(OCCCCCCCCCC(=O)*)cc1; γGlu = O=C(O)[C@H](CCC(=O)[*:2])N[*:1]; C14 diacid = O=C(O)CCCCCCCCCCCCC(=O)*; AEEA = NCCOCCOCC(=O)O
# Molecular target: T1, human GLP-1 receptor (Homo sapiens, UniProt P43220)
# T1 construct: expressed in transfected cells; membranes
# Assay: GLP-1 receptor binding: displacement of 125I-GLP-1 (SPA) at low and high albumin
# Procedure: The purpose of this experiment is to investigate the binding to the GLP-1 receptor of the GLP-1 derivatives, and how the binding is potentially influenced by the presence of albumin. This is done in an in vitro experiment as described below.
# In order to test the binding of the derivatives to albumin, the assay was performed with a low concentration of albumin (0.001%—corresponding to the residual amount thereof in the tracer), as well as with a high concentration of albumin (2.0% added). A shift in the binding affinity, IC50, is an indication that the peptide in question binds to albumin, and thereby a prediction of a potential protracted pharmacokinetic profile of the peptide in question in animal models.
# Species (in vitro): Hamster
# Biological End Point: Receptor Binding
# A stable transfected cell line and a high expressing clone were selected for screening. The cells were grown at 5% CO2 in DMEM, 10% FCS, 1% Pen/Strep (Penicillin/Streptomycin) and 1.0 mg/ml of the selection marker G418.
# The cells (approx. 80% confluence) were washed twice in PBS and harvested with Versene (aqueous solution of the tetrasodium salt of ethylenediaminetetraacetic acid), following which they were separated by centrifugation at 1000 rpm for 5 min. The cells/cell pellet must be kept on ice to the extent possible in the subsequent steps. The cell pellet was homogenised with Ultrathurrax for 20-30 seconds in a suitable amount of Buffer 1 (depending on the amount of cells, but e.g. 10 ml). The homogenate was centrifuged at 20000 rpm for 15 minutes. The pellet was resuspended (homogenised) in 10 ml Buffer 2 and re-centrifuged. This step was repeated once more. The resulting pellet was resuspended in Buffer 2, and the protein concentration was determined. The membranes were stored at minus 80° C.
# Buffer 1: 20 mM Na-HEPES+10 mM EDTA, pH 7.4
# Buffer 2: 20 mM Na-HEPES+0.1 mM EDTA, pH 7.4
# Test compounds, membranes, SPA-particles and [^125I]-GLP-1(7-36)NH2 were diluted in assay buffer. 50 ul (micro liter) HSA (“high albumin” experiment containing 2% HSA), or buffer (“low albumin” experiment containing 0.001% HSA), was added to Optiplate, and 25 ul of test compounds were added. 5-10 ug membrane protein/sample was added (50 ul) corresponding to 0.1-0.2 mg protein/ml (to be preferably optimised for each membrane preparation). SPA-particles (Wheatgerm agglutinin SPA beads, Perkin Elmer, #RPNQ0001) were added in an amount of 0.5 mg/well (50 ul). The incubation was started with [^125I]-GLP-1]-(7-36)NH2 (final concentration 0.06 nM corresponding to 49.880 DPM, 25 ul). The plates were sealed with PlateSealer and incubated for 120 minutes at 30° C. while shaking. The plates were centrifuged (1500 rpm, 10 min) and counted in Topcounter.
# [1] = low albumin, 0.001% HSA, read-out: IC50/nM (low HSA)
# [2] = high albumin, 2.0% HSA, read-out: IC50/nM (high HSA)
# T1 sequence (P43220 24-463): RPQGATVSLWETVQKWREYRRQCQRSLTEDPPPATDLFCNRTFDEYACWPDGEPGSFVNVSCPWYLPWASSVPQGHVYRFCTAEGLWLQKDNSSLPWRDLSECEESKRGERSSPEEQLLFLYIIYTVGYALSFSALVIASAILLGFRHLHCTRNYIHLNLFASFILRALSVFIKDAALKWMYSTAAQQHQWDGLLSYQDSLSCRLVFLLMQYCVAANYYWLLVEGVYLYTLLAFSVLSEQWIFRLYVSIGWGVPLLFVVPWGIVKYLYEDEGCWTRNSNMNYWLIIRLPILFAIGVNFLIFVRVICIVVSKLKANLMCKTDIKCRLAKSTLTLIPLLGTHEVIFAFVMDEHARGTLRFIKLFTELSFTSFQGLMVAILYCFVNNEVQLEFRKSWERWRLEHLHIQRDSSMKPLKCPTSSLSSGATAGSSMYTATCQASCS
Compound,IC50 [1],IC50 [2]
"CC[C@H](C)[C@H](NC(=O)[C@H](Cc1ccccc1)NC(=O)[C@H](CCCCNC(=O)COCCOCCNC(=O)COCCOCCNC(=O)CC[C@H](NC(=O)CCCCCCCCCOc1ccc(C(=O)O)cc1)C(=O)O)NC(=O)[C@H](CCCNC(=N)N)NC(=O)[C@H](C)NC(=O)[C@H](C)NC(=O)[C@H](CCC(N)=O)NC(=O)[C@H](CCC(=O)O)NC(=O)[C@H](CCC(=O)O)NC(=O)[C@H](CC(C)C)NC(=O)[C@H](Cc1ccc(O)cc1)NC(=O)[C@H](CO)NC(=O)[C@H](CO)NC(=O)[C@@H](NC(=O)[C@H](CC(=O)O)NC(=O)[C@H](CO)NC(=O)[C@@H](NC(=O)[C@H](Cc1ccccc1)NC(=O)[C@@H](NC(=O)CNC(=O)[C@H](CCC(=O)O)NC(=O)[C@H](C)NC(=O)[C@@H](N)Cc1c[nH]cn1)[C@@H](C)O)[C@@H](C)O)C(C)C)C(=O)N[C@@H](C)C(=O)N[C@@H](Cc1c[nH]c2ccccc12)C(=O)N[C@@H](CC(C)C)C(=O)N[C@H](C(=O)N[C@@H](CCCNC(=N)N)C(=O)NCC(=O)N[C@@H](CCCNC(=N)N)C(=O)N[C@@H](CCCCNC(=O)COCCOCCNC(=O)COCCOCCNC(=O)CC[C@H](NC(=O)CCCCCCCCCOc1ccc(C(=O)O)cc1)C(=O)O)C(=O)O)C(C)C [Example 1, N^ε27-[2-[2-[2-[[2-[2-[2-[[(4S)-4-carboxy-4-[10-(4-carboxyphenoxy)decanoylamino]butanoyl]amino]ethoxy]ethoxy]acetyl]amino]ethoxy]ethoxy]acetyl], N^ε37-[2-[2-[2-[[2-[2-[2-[[(4S)-4-carboxy-4-[10-(4-carboxyphenoxy)decanoylamino]butanoyl]amino]ethoxy]ethoxy]acetyl]amino]ethoxy]ethoxy]acetyl]-[Glu^22,Arg^26,Lys^27,Arg^34,Lys^37]-GLP-1-(7-37)-peptide] (H-HAEGTFTSDVSSYLEEQAARK([AEEA-AEEA-γGlu-Decanoyl(10-(4-HOOC-PhO))])FIAWLVRGRK([AEEA-AEEA-γGlu-Decanoyl(10-(4-HOOC-PhO))])-OH; N-terminus and C-terminus assumed)",0.19 nM,
"CC[C@H](C)[C@H](NC(=O)[C@H](Cc1ccccc1)NC(=O)[C@H](CCCCNC(=O)COCCOCCNC(=O)COCCOCCNC(=O)CC[C@H](NC(=O)CCCCCCCCCCCCC(=O)O)C(=O)O)NC(=O)[C@H](CCCNC(=N)N)NC(=O)[C@@H](NC(=O)[C@H](CCCCNC(=O)COCCOCCNC(=O)COCCOCCNC(=O)CC[C@H](NC(=O)CCCCCCCCCCCCC(=O)O)C(=O)O)NC(=O)[C@H](CCC(N)=O)NC(=O)[C@H](CCC(=O)O)NC(=O)[C@H](CCC(=O)O)NC(=O)[C@H](CC(C)C)NC(=O)[C@H](Cc1ccc(O)cc1)NC(=O)[C@H](CO)NC(=O)[C@H](CO)NC(=O)[C@@H](NC(=O)[C@H](CC(=O)O)NC(=O)[C@H](CO)NC(=O)[C@@H](NC(=O)[C@H](Cc1ccccc1)NC(=O)[C@@H](NC(=O)CNC(=O)[C@H](CCC(=O)O)NC(=O)[C@H](C)NC(=O)[C@@H](N)Cc1c[nH]cn1)[C@@H](C)O)[C@@H](C)O)C(C)C)C(C)C)C(=O)N[C@@H](C)C(=O)N[C@@H](Cc1c[nH]c2ccccc12)C(=O)N[C@@H](CC(C)C)C(=O)N[C@H](C(=O)NCC(=O)O)C(C)C [Example 27, N^ε24-[2-[2-[2-[[2-[2-[2-[[(4S)-4-carboxy-4-(13-carboxytridecanoylamino)butanoyl]amino]ethoxy]ethoxy]acetyl]amino]ethoxy]ethoxy]acetyl], N^ε27-[2-[2-[2-[[2-[2-[2-[[(4S)-4-carboxy-4-(13-carboxytridecanoylamino)butanoyl]amino]ethoxy]ethoxy]acetyl]amino]ethoxy]ethoxy]acetyl]-[Glu^22,Lys^24, Val^25, Arg^26, Lys^27,Gly^34]-GLP-1-(7-34)-peptide] (H-HAEGTFTSDVSSYLEEQK([AEEA-AEEA-γGlu-C14 diacid])VRK([AEEA-AEEA-γGlu-C14 diacid])FIAWLVG-OH)",,> 1000 nM
"CC[C@H](C)[C@H](NC(=O)[C@H](Cc1ccccc1)NC(=O)[C@H](CCCCNC(=O)COCCOCCNC(=O)COCCOCCNC(=O)CC[C@H](NC(=O)CCCCCCCCCOc1ccc(C(=O)O)cc1)C(=O)O)NC(=O)[C@H](CCCNC(=N)N)NC(=O)[C@@H](NC(=O)[C@H](CCCCNC(=O)COCCOCCNC(=O)COCCOCCNC(=O)CC[C@H](NC(=O)CCCCCCCCCOc1ccc(C(=O)O)cc1)C(=O)O)NC(=O)[C@H](CCC(N)=O)NC(=O)[C@H](CCC(=O)O)NC(=O)[C@H](CCC(=O)O)NC(=O)[C@H](CC(C)C)NC(=O)[C@H](Cc1ccc(O)cc1)NC(=O)[C@H](CO)NC(=O)[C@H](CO)NC(=O)[C@@H](NC(=O)[C@H](CC(=O)O)NC(=O)[C@H](CO)NC(=O)[C@@H](NC(=O)[C@H](Cc1ccccc1)NC(=O)[C@@H](NC(=O)CNC(=O)[C@H](CCC(=O)O)NC(=O)[C@H](C)NC(=O)[C@@H](N)Cc1c[nH]cn1)[C@@H](C)O)[C@@H](C)O)C(C)C)C(C)C)C(=O)N[C@@H](C)C(=O)N[C@@H](Cc1c[nH]c2ccccc12)C(=O)N[C@@H](CC(C)C)C(=O)N[C@H](C(=O)N[C@@H](CCCNC(=N)N)C(=O)NCC(=O)N[C@@H](CCCNC(=N)N)C(=O)NCC(=O)O)C(C)C [Example 28, N^ε24-[2-[2-[2-[[2-[2-[2-[[(4S)-4-carboxy-4-[10-(4-carboxyphenoxy)decanoylamino]butanoyl]amino]ethoxy]ethoxy]acetyl]amino]ethoxy]ethoxy]acetyl], N^ε27-[2-[2-[2-[[2-[2-[2-[[(4S)-4-carboxy-4-[10-(4-carboxyphenoxy)decanoylamino]butanoyl]amino]ethoxy]ethoxy]acetyl]amino]ethoxy]ethoxy]acetyl]-[Glu^22,Lys^24,Val^25,Arg^26,Lys^27,Arg^34]-GLP-1-(7-37)-peptide] (H-HAEGTFTSDVSSYLEEQK([AEEA-AEEA-γGlu-Decanoyl(10-(4-HOOC-PhO))])VRK([AEEA-AEEA-γGlu-Decanoyl(10-(4-HOOC-PhO))])FIAWLVRGRG-OH; N-terminus and C-terminus assumed)",0.2 nM,29 nM
"CC[C@H](C)[C@H](NC(=O)[C@H](Cc1ccccc1)NC(=O)[C@H](CCCCNC(=O)CC[C@H](NC(=O)COCCOCCNC(=O)COCCOCCNC(=O)CCCCCCCCCCCCC(=O)O)C(=O)O)NC(=O)[C@H](CCCNC(=N)N)NC(=O)[C@@H](NC(=O)[C@H](CCCCNC(=O)CC[C@H](NC(=O)COCCOCCNC(=O)COCCOCCNC(=O)CCCCCCCCCCCCC(=O)O)C(=O)O)NC(=O)[C@H](CCC(N)=O)NC(=O)[C@H](CCC(=O)O)NC(=O)[C@H](CCC(=O)O)NC(=O)[C@H](CC(C)C)NC(=O)[C@H](Cc1ccc(O)cc1)NC(=O)[C@H](CO)NC(=O)[C@H](CO)NC(=O)[C@@H](NC(=O)[C@H](CC(=O)O)NC(=O)[C@H](CO)NC(=O)[C@@H](NC(=O)[C@H](Cc1ccccc1)NC(=O)[C@@H](NC(=O)CNC(=O)[C@H](CCC(=O)O)NC(=O)[C@H](C)NC(=O)[C@@H](N)Cc1c[nH]cn1)[C@@H](C)O)[C@@H](C)O)C(C)C)C(C)C)C(=O)N[C@@H](C)C(=O)N[C@@H](Cc1c[nH]c2ccccc12)C(=O)N[C@@H](CC(C)C)C(=O)N[C@H](C(=O)NCC(=O)O)C(C)C [Example 30, N^ε24-[(4S)-4-carboxy-4-[[2-[2-[2-[[2-[2-[2-(13-carboxytridecanoylamino)ethoxy]ethoxy]acetyl]amino]ethoxy]ethoxy]acetyl]amino]butanoyl], N^ε27-[(4S)-4-carboxy-4-[[2-[2-[2-[[2-[2-[2-(13-carboxytridecanoylamino)ethoxy]ethoxy]acetyl]amino]ethoxy]ethoxy]acetyl]amino]butanoyl]-[Glu^22,Lys^24, Val^25, Arg^26, Lys^27,Gly^34]-GLP-1-(7-34)-peptide] (H-HAEGTFTSDVSSYLEEQK([γGlu-AEEA-AEEA-C14 diacid])VRK([γGlu-AEEA-AEEA-C14 diacid])FIAWLVG-OH)",,> 1000 nM
